Legend:
[1] = molecular target: T1, human GP IIb/IIIa receptor (Homo sapiens, UniProt P05106+P08514); assay: GPIIb/IIIa affinity assay (displacement of tritiated reference compound from immobilized receptor); assay type: binding; details: purified human GPIIb/IIIa, 60 nM 3H-labeled reference compound, 1 hour at room temperature
T1 construct: human GPIIb/IIIa purified from human platelets was immobilized on a 96-well solid plate; purchased Enzyme Research Laboratories Inc. (South Bend, Ind.); host or cells: human platelets (natural source, detergent-solubilised)
Procedure: Affinity assay: In the first step human GPIIb/IIIa purified from human platelets was immobilized on a 96-well solid plate. After 48 hours the plates were washed and the unspecific binding sites were blocked with Roti®-Block. 2. In the next step, the plates were simultaneously incubated with a tritium labeled known GPIIb/IIIa binder (^3H) mixed with increasing concentrations of the novel compounds (inhibitor). The higher the affinity of the inhibitor, the lower the bound fraction of the tritiated known GPIIb/IIIa binder (^3H) was. The fraction of tritiated compound (^3H), which is not displaced by inhibitor, was measured in a microplate scintillation counter.
Purified human glycoprotein IIb/IIIa (20 mM Tris-HCl, 0.1 M NaCl, 0.1% Triton X-100, 1 mM CaCl2, 0.05% NaN3, 50% Glycerol, pH 7.4) was purchased from Enzyme Research Laboratories Inc. (South Bend, Ind.). The GPIIb/IIIa receptor was diluted in phosphate-buffered saline (Dulbecco's Phosphate Buffered Saline (D-PBS (+)) with calcium and magnesium, GIBCO®, Invitrogen) with 0.01% bovine serum albumin (albumin from bovine serum—lyophilized powder, 96%, Sigma).
The GPIIb/IIIa receptor was immobilized 48 hours at least (100 μL per well, 48 to maximum 96 hours) on a 96-well solid plate (Immuno Plate MaxiSorp™, Nunc, Roskilde, Denmark) at 277 K to 280 K and at a concentration of 0.1 μg per well to 1 μg per well. As negative control one row of the plate (n=8) was incubated just with 2% bovine serum albumin (200 μL per well, albumin from bovine serum—lyophilized powder, ≧96%, Sigma, diluted in D-PBS (+)).
After washing three times with the wash buffer (230 μL per well, Dulbecco's Phosphate Buffered Saline (D-PBS (−)) contains no calcium or magnesium, GIBCO®, Invitrogen) residual exposed plastic and unspecific binding sites were blocked by incubating the plate with a special blocking solution (200 μL per well, Roti®-Block, Car Roth GmbH Co KG, Karlsruhe) containing 2% bovine serum albumin (Albumin from bovine serum—lyophilized powder, ≧96%, Sigma) 1 hour at room temperature.
After washing three times with the wash buffer 50 μL of tritiated reference compound (60 nM, ^3H-labeled compound) and 50 μL of novel compound (inhibitor) were simultaneously added to each well and incubated for 1 hour at room temperature. Several concentrations of each novel inhibitor (0.1, 1, 2, 5, 10, 20 50, 100, 200, 500, 1000, 2000, 5000, 10000 and 20000 nM) were investigated. At each concentration of inhibitor a fourfold determination was performed.
The maximum value of tritiated reference compound was determined without addition of inhibitor (n=8). To exclude unspecific binding of ^3H— reference compound wells without glycoprotein receptors were used as negative controls (n=12, identically treated just without GPIIb/IIIa receptors).
After one hour the plate was washed three times with phosphate-buffered saline (200 μL per well, Dulbecco's Phosphate Buffered Saline (D-PBS (+)), GIBCO®, Invitrogen). Following 140 μL of liquid scintillation cocktail (MicroScint™ 40 aqueous, Perkin Elmer) was added to each well. After 15 min at room temperature the plates were measured at the microplate scintillation counter (TopCount NXT v2.13, Perkin Elmer, Packard Instrument Company).
In the first step human glycoprotein IIb/IIIa, which is purified from human platelets, was immobilized on a 96-well solid plate. After 48 hours at least the plates were washed and the unspecific binding sites were blocked with Roti®-Block. In the next step, the plates were simultaneously incubated with a tritium labeled reference compound and the novel small molecule compound (inhibitor). The higher the affinity of the inhibitor, the smaller is the bound fraction of reference compound. The fraction of tritiated reference compound, which is not displaced by inhibitor, was measured at a microplate scintillation counter. The higher the affinity of the inhibitor, the smaller is the bound fraction of tritium-labeled reference compound. […]

[2] = tested on: human activated platelets; assay: Binding of investigated compounds to human activated platelets (ICP-MS of Gd in pellet and supernatant); assay type: cell-based; details: ADP-activated platelet-rich plasma, 20 minutes
Procedure: For each experiment fresh blood was taken from a volunteer using 10 mL citrate-tubes (Sarstedt S-Monovette 02.1067.001, 10 mL, Citrate 3.13%). The 10 mL citrate-tubes were carefully inverted 10 times to mix blood and anticoagulant. The tubes were stored in an incubator at a temperature of 37° C. until centrifugation (Heraeus miniTherm CTT with integrated rotation- and turning device, turning speed: 19 rotations per minute, Heraeus Instruments GmbH, Hanau/Germany).
For plasma preparation tube centrifugation was carried out for 15 minutes at 1811 g at room temperature (Eppendorf, Centrifuge 5810R). Blood was centrifuged 15 minutes at 201 g at room temperature to produce platelet-rich plasma. The tubes were stored for 30 min at room temperature to get a better separation. The separated platelet-rich plasma was finally centrifuged for further 3 min at 453 g to remove the remaining erythrocytes. The platelet-rich plasma was activated using a final concentration of 5 μM Adenosindiphosphate (ADP, Sigma). The activated platelet-rich plasma was incubated 20 minutes with different concentrations of gadolinium-labeled compound and subsequently was centrifuged 3 minutes at 1360 g. 20 μL of incubation solution was taken to determine the concentration (n=3). […] The gadolinium concentration of supernatant and pellet was determined using an inductively coupled plasma mass spectrometry (ICP-MS Agilent 7500a).
The results for incubation concentration of 1 μM gadolinium-labeled compound are summarized in table 3 (in comparison to Gadovist® standard dose: 100 μmol Gd/kg body weight).

[3] = incubation concentration 1 μM molecule, pellet was not washed
[4] = incubation concentration 1 μM molecule, pellet washed

T1 sequence (P08514 32-887 limits assumed): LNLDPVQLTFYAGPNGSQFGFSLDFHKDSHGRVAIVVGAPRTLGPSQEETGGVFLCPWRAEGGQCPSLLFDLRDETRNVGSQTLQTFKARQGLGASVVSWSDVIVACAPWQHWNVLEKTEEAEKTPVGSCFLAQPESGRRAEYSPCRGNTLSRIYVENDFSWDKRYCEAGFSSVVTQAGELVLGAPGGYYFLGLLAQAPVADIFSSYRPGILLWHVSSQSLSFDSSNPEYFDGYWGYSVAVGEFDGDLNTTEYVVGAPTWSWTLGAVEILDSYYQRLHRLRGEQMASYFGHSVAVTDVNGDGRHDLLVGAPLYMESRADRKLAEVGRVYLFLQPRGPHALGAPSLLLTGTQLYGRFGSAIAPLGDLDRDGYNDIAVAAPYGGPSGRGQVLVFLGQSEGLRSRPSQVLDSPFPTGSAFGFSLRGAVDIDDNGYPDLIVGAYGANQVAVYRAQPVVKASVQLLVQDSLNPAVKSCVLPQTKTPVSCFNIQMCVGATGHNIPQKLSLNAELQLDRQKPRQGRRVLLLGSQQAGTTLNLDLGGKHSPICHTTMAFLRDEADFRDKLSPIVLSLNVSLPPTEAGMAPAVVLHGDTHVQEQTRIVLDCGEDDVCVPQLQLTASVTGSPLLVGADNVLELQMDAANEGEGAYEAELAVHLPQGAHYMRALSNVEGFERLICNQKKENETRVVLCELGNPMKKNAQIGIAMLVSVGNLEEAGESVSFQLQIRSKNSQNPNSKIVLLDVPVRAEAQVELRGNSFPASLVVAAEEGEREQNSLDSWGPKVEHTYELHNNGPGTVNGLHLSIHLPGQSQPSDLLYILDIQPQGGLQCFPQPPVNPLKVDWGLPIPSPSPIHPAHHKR
T1 sequence (P08514 891-1039 partner limits assumed): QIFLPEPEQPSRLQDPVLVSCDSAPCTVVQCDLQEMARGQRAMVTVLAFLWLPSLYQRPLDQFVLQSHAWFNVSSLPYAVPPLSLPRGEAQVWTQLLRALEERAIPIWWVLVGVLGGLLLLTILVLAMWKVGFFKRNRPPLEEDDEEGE
T1 sequence (P05106 27-788): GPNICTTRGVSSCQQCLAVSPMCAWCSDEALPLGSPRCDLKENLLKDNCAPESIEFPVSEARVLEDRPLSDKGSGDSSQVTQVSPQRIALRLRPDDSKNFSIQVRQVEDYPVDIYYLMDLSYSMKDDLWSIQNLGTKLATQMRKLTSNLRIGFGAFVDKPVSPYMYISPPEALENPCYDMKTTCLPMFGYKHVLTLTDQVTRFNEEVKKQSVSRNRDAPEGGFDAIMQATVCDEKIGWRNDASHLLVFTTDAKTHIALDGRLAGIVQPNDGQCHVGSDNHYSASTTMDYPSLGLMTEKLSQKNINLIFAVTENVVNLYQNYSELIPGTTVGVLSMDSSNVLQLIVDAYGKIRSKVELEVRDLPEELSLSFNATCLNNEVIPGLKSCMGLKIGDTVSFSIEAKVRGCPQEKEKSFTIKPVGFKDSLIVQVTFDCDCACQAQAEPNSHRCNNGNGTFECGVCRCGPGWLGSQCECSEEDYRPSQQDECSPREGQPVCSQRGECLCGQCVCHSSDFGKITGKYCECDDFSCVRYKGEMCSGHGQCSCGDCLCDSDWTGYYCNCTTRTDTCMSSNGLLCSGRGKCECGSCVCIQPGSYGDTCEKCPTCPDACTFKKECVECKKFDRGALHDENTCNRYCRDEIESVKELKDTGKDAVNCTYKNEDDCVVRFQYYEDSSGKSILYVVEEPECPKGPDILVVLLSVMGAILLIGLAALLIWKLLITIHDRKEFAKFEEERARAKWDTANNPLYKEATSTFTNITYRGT

Compound | IC50 [1] [nM] | Concentration within platelet pellet [2, 3] [μM Gd] | Concentration within platelet pellet [2, 4] [μM Gd] | Concentration within platelet pellet ([2]; incubation concentration 0.8 μM molecule, pellet washed) [μM Gd]
C[C@@H](C(=O)NCC(=O)OCCC#Cc1cncc([C@H](CC(=O)O)NC(=O)[C@@H]2CCCN(C(=O)CCC3CCNCC3)C2)c1)N1CCN(CC(=O)O)CCN(CC(=O)O)CCN(CC(=O)O)CC1 [Example 1, Gadolinium 2,2′,2″-(10-{(2S)-1-[(2-{[4-(5-{(1S)-2-carboxy-1-[({(3R)-1-[3-(piperidin-4-yl)-propanoyl]piperidin-3-yl}carbonyl)amino]ethyl}pyridin-3-yl)but-3-yn-1-yl]oxy}-2-oxo-ethyl)amino]-1-oxopropan-2-yl}-1,4,7,10-tetraazacyclododecane-1,4,7-triyl)triacetate] | 29 |  |  | 
C[C@@H](C(=O)NCC(=O)NCCCCCCc1ccc(CCc2cncc([C@H](CC(=O)O)NC(=O)[C@@H]3CCCN(C(=O)CCC4CCNCC4)C3)c2)cc1)N1CCN(CC(=O)O)CCN(CC(=O)O)CCN(CC(=O)O)CC1 [Example 4, Gadolinium 2,2′,2″-{10-[(2S)-1-({2-[(6-{4-[(5-{(1S)-2-carboxy-1-[({(3R)-1-[3-(piperidin-4-yl)propanoyl]piperidin-3-yl}carbonyl)amino]ethyl}pyridin-3-yl)ethyl]phenyl}hexyl)-amino]-2-oxoethyl}amino)-1-oxopropan-2-yl]-1,4,7,10-tetraazacyclododecane-1,4,7-triyl}triacetate] | 25 |  | 3.8 ± 0.2 | 
CC(C(=O)NCC(=O)NCC(NC(=O)CNC(=O)C(C)N1CCN(CC(=O)O)CCN(CC(=O)O)CCN(CC(=O)O)CC1)C(=O)NCC(NC(=O)C(CNC(=O)CNC(=O)C(C)N1CCN(CC(=O)O)CCN(CC(=O)O)CCN(CC(=O)O)CC1)NC(=O)CNC(=O)C(C)N1CCN(CC(=O)O)CCN(CC(=O)O)CCN(CC(=O)O)CC1)C(=O)NCCCCc1cccc(CCc2cncc([C@H](CC(=O)O)NC(=O)[C@@H]3CCCN(C(=O)CCC4CCNCC4)C3)c2)c1)N1CCN(CC(=O)O)CCN(CC(=O)O)CCN(CC(=O)O)CC1 (stereo partly drawn) [Example 9, Tetragadolinium 2,3-bis({2,3-bis[(N-{2-[4,7,10-tris(carboxylatomethyl)-1,4,7,10-tetraazacyclododecan-1-yl]propanoyl}glycyl)amino]propanoyl}amino)-N-(4-{3-[(5-{(1S)-2-carboxy-1-[({(3R)-1-[3-(piperidin-4-yl)propanoyl]piperidin-3-yl}carbonyl)amino]ethyl}pyridin-3-yl)ethyl]phenyl}butyl)propanamide] | 32 |  |  | 21.1 ± 9.6
CC(C(=O)NCC(=O)NCC(NC(=O)CNC(=O)C(C)N1CCN(CC(=O)O)CCN(CC(=O)O)CCN(CC(=O)O)CC1)C(=O)NCC(NC(=O)C(CNC(=O)CNC(=O)C(C)N1CCN(CC(=O)O)CCN(CC(=O)O)CCN(CC(=O)O)CC1)NC(=O)CNC(=O)C(C)N1CCN(CC(=O)O)CCN(CC(=O)O)CCN(CC(=O)O)CC1)C(=O)NCCCc1ccc(C#Cc2cncc([C@H](CC(=O)O)NC(=O)[C@@H]3CCCN(C(=O)CCC4CCNCC4)C3)c2)cc1)N1CCN(CC(=O)O)CCN(CC(=O)O)CCN(CC(=O)O)CC1 (stereo partly drawn) [Example 11, Tetragadolinium 2,3-bis({2,3-bis[(N-{2-[4,7,10-tris(carboxylatomethyl)-1,4,7,10-tetraaza-cyclododecan-1-yl]propanoyl}glycyl)amino]propanoyl}amino)-N-(3-{4-[(5-{(1S)-2-carboxy-1-[({(3R)-1-[3-(piperidin-4-yl)propanoyl]piperidin-3-yl}carbonyl)amino]ethyl}-pyridin-3-yl)ethynyl]phenyl}propyl)propanamide] | 26 |  | 19.9 ± 0.9 | 

The next compounds have a lower IC50 [1] than those just listed; values first:

IC50 [1] [nM] | Compound | Concentration within platelet pellet [2, 3] [μM Gd] | Concentration within platelet pellet [2, 4] [μM Gd] | Concentration within platelet pellet ([2]; incubation concentration 0.8 μM molecule, pellet washed) [μM Gd]
24 | C[C@@H](C(=O)NCC(=O)NCCC#Cc1cncc([C@H](CC(=O)O)NC(=O)[C@@H]2CCCN(C(=O)CCC3CCNCC3)C2)c1)N1CCN(CC(=O)O)CCN(CC(=O)O)CCN(CC(=O)O)CC1 [Example 2, Gadolinium 2,2′,2″-(10-{(2S)-1-[(2-{[4-(5-{(1S)-2-carboxy-1-[({(3R)-1-[3-(piperidin-4-yl)-propanoyl]piperidin-3-yl}carbonyl)amino]ethyl}pyridin-3-yl)but-3-yn-1-yl]amino}-2-oxo-ethyl)amino]-1-oxopropan-2-yl}-1,4,7,10-tetraazacyclododecane-1,4,7-triyl)triacetate] | 8.1 ± 0.6 |  | 
13 | C[C@@H](C(=O)NCC(=O)NCCCCCCc1ccc(C#Cc2cncc([C@H](CC(=O)O)NC(=O)[C@@H]3CCCN(C(=O)CCC4CCNCC4)C3)c2)cc1)N1CCN(CC(=O)O)CCN(CC(=O)O)CCN(CC(=O)O)CC1 [Example 3, Gadolinium 2,2′,2″-{10-[(2S)-1-({2-[(6-{4-[(5-{(1S)-2-carboxy-1-[({(3R)-1-[3-(piperidin-4-yl)propanoyl]piperidin-3-yl}carbonyl)amino]ethyl}pyridin-3-yl)ethynyl]phenyl}hexyl)-amino]-2-oxoethyl}amino)-1-oxopropan-2-yl]-1,4,7,10-tetraazacyclododecane-1,4,7-triyl}triacetate] | 8.3 ± 2.1 |  | 
16 | CC(C(=O)NCC(=O)NC[C@H](NC(=O)CNC(=O)C(C)N1CCN(CC(=O)O)CCN(CC(=O)O)CCN(CC(=O)O)CC1)C(=O)NCCCc1ccc(C#Cc2cncc([C@H](CC(=O)O)NC(=O)[C@@H]3CCCN(C(=O)CCC4CCNCC4)C3)c2)cc1)N1CCN(CC(=O)O)CCN(CC(=O)O)CCN(CC(=O)O)CC1 (stereo partly drawn) [Example 10, Digadolinium N-{2-[4,7,10-tris(carboxylatomethyl)-1,4,7,10-tetraazacyclododecan-1-yl]-propanoyl}glycyl-N-(3-{4-[(5-{(1S)-2-carboxy-1-[({(3R)-1-[3-(piperidin-4-yl)propanoyl]-piperidin-3-yl}carbonyl)amino]ethyl}pyridin-3-yl)ethynyl]phenyl}propyl)-3-[(N-{2-[4,7,10-tris(carboxylatomethyl)-1,4,7,10-tetraazacyclododecan-1-yl]propanoyl}glycyl)-amino]alaninamide] |  | 13.9 ± 0.3 | 

Source: patent US20160008490A1, “METAL CHELATE COMPOUNDS FOR BINDING TO THE PLATELET SPECIFIC GLYCOPROTEIN IIB/IIIA” (BAYER PHARMA AKTIENGESELLSCHAFT, priority 2013, published 2016)
